These results are taken from paper PMC9249579, “Strawberry fruit FanCXE1 carboxylesterase is involved in the catabolism of volatile esters during the ripening process” (Horticulture Research, 2022).

Broadly, the Km is the concentration of substrate that gives half-maximal velocity.

In this test the test system is T1, FanCXE1.
T1 construct: full-length, 981 bp ORF (326 residues from ORF length), 37 kDa; N-terminal GST fusion (pGEX-4T-1), tag kept, 64 kDa; E. coli, semipurified on GST-sepharose; Gly-82-Gly-83 oxyanion hole
As to the kind of experiment: colorimetric naphthol release (DBLS reagent, […] nm). It counts as biochemical, Fragaria x ananassa. The settings on record: optimum pH (7-7.5) and temperature (25-30°C), 20 min; semipurified GST fusion.

For the molecule `CCCC(=O)Oc1cccc2ccccc12` [α-Naphthyl butyrate], the Km was 1580 ± 190 µM.

Take `CC(=O)Oc1cccc2ccccc12` [α-Naphthyl acetate]: the Km came to 678 ± 170 µM.

For the molecule `CCCCCC(=O)Oc1ccc2ccccc2c1` [β-Naphthyl hexanoate], the Km turned out to be 572 ± 250 µM.
